In brackets after ≈: the same amount, converted by molar mass.
Tests used:
[1] = tested on: Enterococcus faecalis ATCC 19433; experiment: Inhibition of bacterial growth in culture, spiral gradient endpoint assay (MIC); type: cell-based; details: Enterococcus faecalis, ATCC 19433 /, 16 h, read-out: MIC E. faecalis, Mueller-Hinton II agar, 16 h at 37° C.
Text: J. Microbiol. Meths. […] Int. J. Exp. Clin. Chemother. […] Adv.

[2] = tested on: Escherichia coli D21f2tolC; experiment: microbe, parasite or virus in culture; details: 16 h, read-out: MIC E. coli D21f2tolC, Mueller-Hinton II agar, 16 h at 37° C.
[3] = tested on: Staphylococcus aureus ATCC 12600; experiment: Inhibition of bacterial growth in culture, spiral gradient endpoint assay (MIC); details: Staphylococcus aureus, ATCC12600, 16 h, read-out: MIC S. aureus 12600, Mueller-Hinton II agar, 16 h at 37° C.

Compound `Cc1cc(Oc2ccc(Cl)cc2)ccc1C1CC1C(=O)c1c(O)cc(O)cc1O` (stereo not drawn) [Example 26, (2-(4-(4-chlorophenoxy)-2-methylphenyl)cyclopropyl)(2,4,6-trihydroxyphenyl)methanone] has an MIC [1] of 2.1 µg/mL (≈ 5.11 µM), an MIC [2] of 1.4 µg/mL (≈ 3.41 µM) and an MIC [3] of 1.4 µg/mL (≈ 3.41 µM).
Compound `Cc1cc(Oc2ccc(F)cc2)ccc1/C=C/C(=O)c1c(O)cc(O)cc1O` [Example 27, (E)-3-(4-(4-fluorophenoxy)-2-methylphenyl)-1-(2,4,6-trihydroxyphenyl)prop-2-en-1-one] has an MIC [1] of 17 µg/mL (≈ 44.7 µM), an MIC [2] of 2.4 µg/mL (≈ 6.31 µM) and an MIC [3] of 5.1 µg/mL (≈ 13.4 µM).
Compound `O=C(/C=C/c1ccc(Oc2ccc(C(F)(F)F)cc2)cc1)c1c(O)cc(O)cc1O` [Example 28, (E)-3-(4-(4-(trifluoromethyl)phenoxy)phenyl)-1-(2,4,6-trihydroxyphenyl)prop-2-en-1-one] has an MIC [1] of 6.5 µg/mL (≈ 15.6 µM), an MIC [2] of 2.4 µg/mL (≈ 5.76 µM) and an MIC [3] of 3.1 µg/mL (≈ 7.45 µM).
Compound `O=C(c1c(O)cc(O)cc1O)C1CC1c1ccc(Oc2ccc(Cl)cc2Cl)cc1` (stereo not drawn) [Example 29, (2-(4-(2,4-dichlorophenoxy)phenyl)cyclopropyl)(2,4,6-trihydroxyphenyl) methanone] has an MIC [1] of 2.4 µg/mL (≈ 5.56 µM), an MIC [2] of 1.5 µg/mL (≈ 3.48 µM) and an MIC [3] of 1.5 µg/mL (≈ 3.48 µM).
With `Cc1cc(Oc2ccccc2)ccc1/C=C/C(=O)c1c(O)cc(O)cc1O` [Example 31, (E)-3-(2-methyl-4-phenoxyphenyl)-1-(2,4,6-trihydroxyphenyl)prop-2-en-1-one] the MIC [1] was 9.6 µg/mL (≈ 26.5 µM), the MIC [2] was 1.4 µg/mL (≈ 3.86 µM) and the MIC [3] was 5.8 µg/mL (≈ 16 µM).
`O=C(/C=C/c1ccc(Oc2ccc(F)cc2)cc1C(F)(F)F)c1c(O)cc(O)cc1O` [Example 32, (E)-3-(4-(4-fluorophenoxy)-2-(trifluoromethyl)phenyl)-1-(2,4,6-trihydroxyphenyl)prop-2-en-1-one] showed an MIC [1] of 5.7 µg/mL (≈ 13.1 µM), an MIC [2] of 2.1 µg/mL (≈ 4.83 µM) and an MIC [3] of 3.5 µg/mL (≈ 8.06 µM).
In the case of `Cc1cc(Oc2ccccc2)ccc1CCC(=O)c1c(O)cc(O)cc1O` [Example 33, 3-(2-methyl-4-phenoxyphenyl)-1-(2,4,6-trihydroxyphenyl)propan-1-one], the MIC [1] is reported as 7.5 µg/mL (≈ 20.6 µM), the MIC [2] is reported as 1.6 µg/mL (≈ 4.39 µM) and the MIC [3] is reported as 4.6 µg/mL (≈ 12.6 µM).
In the case of `Cc1cc(Oc2ccc(F)cc2)ccc1CCC(=O)c1c(O)cc(O)cc1O` [Example 34, 3-(4-(4-fluorophenoxy)-2-methylphenyl)-1-(2,4,6-trihydroxyphenyl)propan-1-one], the MIC [1] is reported as 5.2 µg/mL (≈ 13.6 µM), the MIC [2] is reported as 1.1 µg/mL (≈ 2.88 µM) and the MIC [3] is reported as 3.6 µg/mL (≈ 9.41 µM).
Work on `O=C(CCc1ccc(Oc2ccc(C(F)(F)F)cc2)cc1)c1c(O)cc(O)cc1O` [Example 35, 3-(4-(4-(trifluoromethyl)phenoxy)phenyl)-1-(2,4,6-trihydroxyphenyl)propan-1-one] yielded an MIC [1] of 5.1 µg/mL (≈ 12.2 µM), an MIC [2] of 1.3 µg/mL (≈ 3.11 µM) and an MIC [3] of 3.5 µg/mL (≈ 8.37 µM).
Compound `Cc1cc(Oc2ccc(F)cc2)ccc1C1CC1C(=O)c1c(O)cc(O)cc1O` (stereo not drawn) [Example 36, (2-(4-(4-fluorophenoxy)-2-methylphenyl)cyclopropyl)(2,4,6-trihydroxyphenyl)methanone] has an MIC [1] of 4.4 µg/mL (≈ 11.2 µM), an MIC [2] of 1.7 µg/mL (≈ 4.31 µM) and an MIC [3] of 2.4 µg/mL (≈ 6.09 µM).
For `O=C(CCc1ccc(Oc2ccc(F)cc2)cc1C(F)(F)F)c1c(O)cc(O)cc1O` [Example 37, 3-(4-(4-fluorophenoxy)-2-(trifluoromethyl)phenyl)-1-(2,4,6-trihydroxyphenyl)propan-1-one], the MIC [1] was 4.4 µg/mL (≈ 10.1 µM), the MIC [2] was 2.4 µg/mL (≈ 5.5 µM) and the MIC [3] was 3.5 µg/mL (≈ 8.02 µM).
For `COc1ccc(C2CC2C(=O)c2c(O)cc(O)cc2O)cc1` (stereo not drawn) [Example 38, (2-(4-methoxyphenyl)cyclopropyl)(2,4,6-trihydroxyphenyl)methanone], the MIC [1] was > 40 µg/mL, the MIC [2] was > 40 µg/mL and the MIC [3] was > 40 µg/mL.
Work on `Cc1cc(Oc2ccccc2)ccc1C1CC1C(=O)c1c(O)cc(O)cc1O` (stereo not drawn) [Example 39, (2-(2-methyl-4-phenoxyphenyl)cyclopropyl)(2,4,6-trihydroxyphenyl)methanone] yielded an MIC [1] of 4.1 µg/mL (≈ 10.9 µM), an MIC [2] of 1.6 µg/mL (≈ 4.25 µM) and an MIC [3] of 3.6 µg/mL (≈ 9.56 µM).
With `Cc1cc(Oc2ccccc2)ccc1/C=C/C(=O)c1c(O)cc(O)c(Cl)c1O` [Example 40, (E)-1-(3-chloro-2,4,6-trihydroxyphenyl)-3-(2-methyl-4-phenoxyphenyl)prop-2-en-1-one] the MIC [1] was > 40 µg/mL, the MIC [2] was 9.4 µg/mL (≈ 23.7 µM) and the MIC [3] was > 40 µg/mL.
`Cc1cc(Oc2ccccc2)ccc1CCC(=O)c1c(O)cc(O)c(Cl)c1O` [Example 41, 1-(3-chloro-2,4,6-trihydroxyphenyl)-3-(2-methyl-4-phenoxyphenyl)propan-1-one] gave an MIC [1] of 19 µg/mL (≈ 47.6 µM), an MIC [2] of 9.4 µg/mL (≈ 23.6 µM) and an MIC [3] of 19 µg/mL (≈ 47.6 µM).
`Cc1cc(Oc2ccccc2)ccc1C1CC1C(=O)c1c(O)cc(O)c(Cl)c1O` (stereo not drawn) [Example 42, (3-chloro-2,4,6-trihydroxyphenyl)(2-(2-methyl-4-phenoxyphenyl)cyclopropyl)methanone] gave an MIC [1] of 16 µg/mL (≈ 38.9 µM), an MIC [2] of 10 µg/mL (≈ 24.3 µM) and an MIC [3] of 14 µg/mL (≈ 34.1 µM).
With `O=C(c1c(O)cc(O)cc1O)C1CC1c1ccc(Oc2ccc(F)cc2F)cc1` (stereo not drawn) [Example 43, (2-(4-(2,4-difluorophenoxy)phenyl)cyclopropyl)(2,4,6-trihydroxyphenyl) methanone] the MIC [1] was 8.4 µg/mL (≈ 21.1 µM), the MIC [2] was 2.8 µg/mL (≈ 7.03 µM) and the MIC [3] was 6.6 µg/mL (≈ 16.6 µM).
`O=C(c1c(O)cc(O)cc1O)C1CC1c1ccc(Oc2ccc(F)cc2)cc1C(F)(F)F` (stereo not drawn) [Example 44, (2-(4-(4-fluorophenoxy)-2-(trifluoromethyl)phenyl)cyclopropyl)(2,4,6-trihydroxyphenyl)methanone] gave an MIC [1] of 1.8 µg/mL (≈ 4.01 µM), an MIC [2] of 1.5 µg/mL (≈ 3.35 µM) and an MIC [3] of 1.5 µg/mL (≈ 3.35 µM).
`O=C(CCc1ccc(Oc2ccc(F)cc2)cc1)c1c(O)cc(O)c(Cl)c1O` [Example 45, 1-(3-chloro-2,4,6-trihydroxyphenyl)-3-(4-(4-fluorophenoxy)phenyl)propan-1-one] showed an MIC [1] of 11 µg/mL (≈ 27.3 µM), an MIC [2] of 5.2 µg/mL (≈ 12.9 µM) and an MIC [3] of 9.6 µg/mL (≈ 23.8 µM).
For `O=C(c1c(O)cc(O)c(Cl)c1O)C1CC1c1ccc(Oc2ccc(F)cc2)cc1` (stereo not drawn) [Example 46, (3-chloro-2,4,6-trihydroxyphenyl)(2-(4-(4-fluorophenoxy)phenyl)cyclopropyl)methanone], the MIC [1] was 12 µg/mL (≈ 28.9 µM), the MIC [2] was 6.6 µg/mL (≈ 15.9 µM) and the MIC [3] was 9.6 µg/mL (≈ 23.1 µM).
`O=C(c1c(O)cc(O)cc1O)C1CC1c1ccc(Cl)cc1C(F)(F)F` (stereo not drawn) [Example 47, (2-(4-chloro-2-(trifluoromethyl)phenyl)cyclopropyl)(2,4,6-trihydroxyphenyl)methanone] showed an MIC [1] of 9.6 µg/mL (≈ 25.8 µM), an MIC [2] of 4.8 µg/mL (≈ 12.9 µM) and an MIC [3] of 9.6 µg/mL (≈ 25.8 µM).
In the case of `O=C(/C=C/c1ccc(Oc2ccc(F)cc2)cc1)c1c(O)cc(O)c(Cl)c1O` [Example 48, (E)-1-(3-chloro-2,4,6-trihydroxyphenyl)-3-(4-(4-fluorophenoxy)phenyl)prop-2-en-1-one], the MIC [1] is reported as > 40 µg/mL, the MIC [2] is reported as 20 µg/mL (≈ 49.9 µM) and the MIC [3] is reported as > 40 µg/mL.
`O=C(CCc1ccc(Oc2ccc(F)cc2)cc1C(F)(F)F)c1c(O)cc(O)c(Cl)c1O` [Example 49, 1-(3-chloro-2,4,6-trihydroxyphenyl)-3-(4-(4-fluorophenoxy)-2-(trifluoromethyl)phenyl)propan-1-one] showed an MIC [1] of 12 µg/mL (≈ 25.5 µM), an MIC [2] of 12 µg/mL (≈ 25.5 µM) and an MIC [3] of 12 µg/mL (≈ 25.5 µM).
For `Cc1cc(Oc2ccc(F)cc2)ccc1CCC(=O)c1c(O)cc(O)c(Cl)c1O` [Example 50, 1-(3-chloro-2,4,6-trihydroxyphenyl)-3-(4-(4-fluorophenoxy)-2-methylphenyl)propan-1-one], the MIC [1] was 18 µg/mL (≈ 43.2 µM), the MIC [2] was 19 µg/mL (≈ 45.6 µM) and the MIC [3] was 16 µg/mL (≈ 38.4 µM).
`O=C(c1c(O)cc(O)c(Cl)c1O)C1CC1c1ccc(Oc2ccc(F)cc2)cc1C(F)(F)F` (stereo not drawn) [Example 51, (3-chloro-2,4,6-trihydroxyphenyl)(2-(4-(4-fluorophenoxy)-2-(trifluoromethyl)phenyl)cyclopropyl)methanone] showed an MIC [1] of 15 µg/mL (≈ 31.1 µM), an MIC [2] of 16 µg/mL (≈ 33.1 µM) and an MIC [3] of 11 µg/mL (≈ 22.8 µM).
Compound `Cc1cc(Oc2ccc(F)cc2)ccc1C1CC1C(=O)c1c(O)cc(O)c(Cl)c1O` (stereo not drawn) [Example 52, (3-chloro-2,4,6-trihydroxyphenyl)(2-(4-(4-fluorophenoxy)-2-methylphenyl)cyclopropyl)methanone] has an MIC [1] of 5.2 µg/mL (≈ 12.1 µM), an MIC [2] of 7.5 µg/mL (≈ 17.5 µM) and an MIC [3] of 3.2 µg/mL (≈ 7.46 µM).
`Cc1cc(Cl)ccc1C1CC1C(=O)c1c(O)cc(O)cc1O` (stereo not drawn) [Example 53, (2-(4-chloro-2-methylphenyl)cyclopropyl)(2,4,6-trihydroxyphenyl)methanone] was tested, and the MIC [1] was 5.3 µg/mL (≈ 16.6 µM), the MIC [2] was 4.7 µg/mL (≈ 14.7 µM) and the MIC [3] was 4.7 µg/mL (≈ 14.7 µM).
`O=C(c1c(O)cc(O)c(Cl)c1O)C1CC1c1ccc(Cl)cc1C(F)(F)F` (stereo not drawn) [Example 54, (3-chloro-2,4,6-trihydroxyphenyl)(2-(4-chloro-2-(trifluoromethyl)phenyl)cyclopropyl)methanone] was tested, and the MIC [1] was 17 µg/mL (≈ 41.8 µM), the MIC [2] was 17 µg/mL (≈ 41.8 µM) and the MIC [3] was 12 µg/mL (≈ 29.5 µM).
For `O=C(c1c(O)cc(O)c(Cl)c1O)C1CC1c1ccc(Cl)cc1` (stereo not drawn) [Example 55, (3-chloro-2,4,6-trihydroxyphenyl)(2-(4-chlorophenyl)cyclopropyl)methanone], the MIC [1] was 22 µg/mL (≈ 64.9 µM), the MIC [2] was > 40 µg/mL and the MIC [3] was 17 µg/mL (≈ 50.1 µM).
For `Cc1cc(Cl)ccc1C1CC1C(=O)c1c(O)cc(O)c(Cl)c1O` (stereo not drawn) [Example 56, (3-chloro-2,4,6-trihydroxyphenyl)(2-(4-chloro-2-methylphenyl)cyclopropyl)methanone], the MIC [1] was 22 µg/mL (≈ 62.3 µM), the MIC [2] was > 40 µg/mL and the MIC [3] was 17 µg/mL (≈ 48.1 µM).
`O=C(c1c(O)cc(O)cc1O)C1CC1c1ccc(C(F)(F)F)cc1C(F)(F)F` (stereo not drawn) [Example 57, (2-(2,4-bis(trifluoromethyl)phenyl)cyclopropyl)(2,4,6-trihydroxyphenyl)methanone] was tested, and the MIC [1] was 5.7 µg/mL (≈ 14 µM), the MIC [2] was 3.5 µg/mL (≈ 8.61 µM) and the MIC [3] was 4.3 µg/mL (≈ 10.6 µM).
For `O=C(c1c(O)cc(O)cc1O)C1CC1c1ccc(C(F)(F)F)cc1` (stereo not drawn) [Example 58, (2-(4-(trifluoromethyl)phenyl)cyclopropyl)(2,4,6-trihydroxyphenyl)methanone], the MIC [1] was 12 µg/mL (≈ 35.5 µM), the MIC [2] was 3.9 µg/mL (≈ 11.5 µM) and the MIC [3] was 10 µg/mL (≈ 29.6 µM).
With `CCCC1=C(O)C(CCC)(CCC)C(=O)C(C(=O)C2CC2c2ccc(Oc3ccccc3)cc2)=C1O` (stereo not drawn) [Example 59, 3,5-dihydroxy-2-(2-(4-phenoxyphenyl)cyclopropanecarbonyl)-4,6,6-tripropylcyclohexa-2,4-dienone] the MIC [1] was 3 µg/mL (≈ 6.14 µM), the MIC [2] was 1.1 µg/mL (≈ 2.25 µM) and the MIC [3] was 0.7 µg/mL (≈ 1.43 µM).
